Results taken from patent US12661357B2, “Use of pyrido[1,2-a]pyrimidone analogue” (GUANGZHOU JOYO PHARMATECH CO., LTD, priority 2021, dated 2026).
Like-named read-outs stand apart in the source and are kept apart here.

Key:
[1] = test system: KYSE-150 esophageal cancer cells; experiment: CTG cell proliferation IC50, KYSE-150; format: cell-based; conditions: KYSE-150 cells, read-out: Absolute IC50
Description: (§1) • 2). IC50 value: the concentration of inhibitor when 50% inhibitory effect was achieved; • 3). CAL-27 and RPMI 2650: head and neck cancer cell models; HepG2: hepatocellular cancer cells. CAL-27, RPMI 2650 and HepG2 cells were purchased from ATCC, where ATCC® No. was CRL-2095™, CCL-30™, HB-8065™, respectively. • 4). Both KYSE-150 and TE-1 were esophageal cancer cell models. The KYSE-150 cell line was purchased from DSMZ (German Collection of Microorganisms and Cell Cultures), and the DSMZ No. was ACC375; the TE-1 cell line was purchased from National Collection of Authenticated Cell Cultures, catalog number: TCHu89. • 5). RPMI 1640/F12 medium was a 1:1 mixture of RPMI 1640 medium and F12 medium. • 6). The percentages in 10% FBS in Table 1 and Table 2 were volume percentages. (2) Reagents • 1). FBS (fetal bovine serum) (purchased from ExCell, product number: FND500); • 2). MEM medium (purchased from Hyclone, product number: SH30024.01; • 3). DMEM medium (purchased from Gibco, product number: C11995500BT); • 4). MEM NEAA (purchased from Gibco, product number: 11140-050); • 5). RPMI1640 Culture medium (purchased from Gibco, product number: 11875-119); • 6). F12 Culture medium (purchased from Gibco, product number: 11765-054); (3) Test Article and Positive Control Article
(§2) 2. CTG Method was Used to Determine the Cell Proliferation IC50 of the Compound
(§3) • Step 1: Cells in exponential growth phase were harvested, and viable cells were counted with a Vi-Cell XR cytometer. The cell suspension was adjusted to an appropriate concentration with medium. 90 μL of cell suspension was added to each well of a 96-well cell culture plate, and the final cell concentration was 1500-6000 cells/well. • Step 2: The initial concentration of administration of compound I is 3 μM, and the initial concentration of administration of the control drug Alpelisib and Cisplatin was 10 μM, serially diluted 3-fold, a total of 9 concentration gradients and a DMSO control, the final concentration of DMSO in each well was 0.1%, placed in a 37° C., 5% CO2 incubator for 72 hours. • Step 3: After 72 hours of drug treatment, 50 μL (½ culture volume) CTG solution that was melted and equilibrated to room temperature was added to each well according to the CTG operation instructions. […] After 10 minutes, the fluorescence signal value was measured with an Envision2104 plate reader. […]
(§4) Cell survival rate was calculated using the formula: Vsample/Vvehicle control×100%. Where, Vsample was the reading of the drug treatment group, and Vvehicle control was the average value of the solvent control group. GraphPad Prism 5.0 software was used, and a S-type dosage-survival rate curve was drawn using a nonlinear regression model and IC50 value was calculated.

[2] = test system: TE-1 esophageal cancer cells; experiment: CTG cell proliferation IC50, TE-1; format: cell-based; conditions: TE-1 cells, read-out: Absolute IC50
Description: as §1, §2, §3, §4

[3] = test system: RPMI2650 head and neck cancer cells; experiment: CTG cell proliferation IC50, RPMI 2650; format: cell-based; conditions: 72 hours, read-out: Absolute IC50
Description: as §1, §2
(§5) • Step 1: Cells in exponential growth phase were harvested, and viable cells were counted with a Vi-Cell XR cytometer. The cell suspension was adjusted to an appropriate concentration with medium. […] After 10 minutes, the fluorescence signal value was measured with an Envision2104 plate reader. […]
as §4

[4] = test system: CAL-27 head and neck cancer cells; experiment: CTG cell proliferation IC50, CAL-27; format: cell-based; conditions: CAL-27 cells, 72 hours, read-out: Absolute IC50
Description: as §1, §2, §5, §4

[5] = test system: human-derived colorectal cancer CO-04-0032 subcutaneous xenograft tumor; experiment: In vivo efficacy, CO-04-0032 subcutaneous xenograft tumor model; design: species or system BALB/c nude mice; conditions: for Tumor volume (Day 28): mean ± SEM
Description: Experimental purpose: Study the in vivo efficacy of the test drug on human-derived colorectal cancer CO-04-0032 subcutaneous xenograft tumor model in nude mice.
Experimental design: • (1) Animals: BALB/c nude mice, female, 6 weeks old, weighing 16-18 grams. […] CO-04-0032 was a PDX model of human-derived colon cancer independently developed by WuXi AppTec New Drug Development Co., Ltd. See Table 5 below for the experimental grouping and dosing regimen.

[6] = 5 mg/kg, oral, once a day for 28 days
[7] = 20 mg/kg, vein, once a week, day 28

Cc1nc(NC(=O)N2CCC[C@H]2C(N)=O)sc1-c1ccnc(C(C)(C)C(F)(F)F)c1 [Alpelisib, reference compound]
IC50 ([1]; Homo sapiens, KYSE-150, 72 h): > 2000 nM
IC50 ([1]; 72 hours): 2110 nM
IC50 ([2]; Homo sapiens, TE-1, 72 h): > 2000 nM
IC50 ([2]; 72 hours): > 3000 nM

N.N.[Cl][Pt][Cl] [Cisplatin, reference compound]
IC50 [3]: 4250 nM
IC50 [4]: 4370 nM

CO[C@H]1C[C@@H]2CC[C@@H](C)[C@@](O)(O2)C(=O)C(=O)N2CCCC[C@H]2C(=O)O[C@H]([C@H](C)C[C@@H]2CC[C@@H](OCCO)[C@H](OC)C2)CC(=O)[C@H](C)/C=C(\C)[C@@H](O)[C@@H](OC)C(=O)[C@H](C)C[C@H](C)/C=C/C=C/C=C/1C [Everolimus, reference compound]
T/C [5, 6]: 42%
TGI [5, 6]: 60%
Tumor volume (Day 28) [5, 6]: 739 ± 206 mm^3

CN(C)C1CCN(C(=O)c2ccc(NC(=O)Nc3ccc(-c4nc(N5CCOCC5)nc(N5CCOCC5)n4)cc3)cc2)CC1 [PF05212384, reference compound]
T/C [5, 7]: 68%
TGI [5, 7]: 44%
Tumor volume (Day 28) [5, 7]: 971 ± 249 mm^3
